In patent US7163940B2, “Pyrazolopyridinyl pyrimidine therapeutic compounds” (SmithKline Beecham Corporation, priority 2000, dated 2007):
Structures can show the parent of a compound that is named as a salt.

Tested on: HSV-1
Test: HSV-1 replication in infected Vero 76 cells, viral DNA hybridization capture assay
Assay type: cell-based
Conditions: Human alphaherpesvirus 1, Vero 76, HSV-1, Vero 76 cells, MOI=0.001, 40–48 hours incubation
Description: Vero 76 cells were maintained in MEM with Earle's salts, L-glutamine, 8% FBS (Hyclone, A-1111-L) and 100 units/mL Penicillin-100 μg/mL Streptomycin. For assay conditions, FBS was reduced to 2%. Cells are seeded into 96-well tissue culture plates at a density of 5×10^4 cells/well after being incubated for 45 min at 37° C. in the presence of HSV-1 or HSV-2 (MOI=0.001). Test compounds are added to the wells and the plates are incubated at 37° C. for 40–48 hours. Cell lysates are prepared as follows: media was removed and replaced with 150 μL/well 0.2 N NaOH with 1% Igepal CA 630 or NP-40. Plates were incubated up to 14 days at room temperature in a humidified chamber to prevent evaporation. • (b) Preparation of Detection DNA.
For the detection probe, a gel-purified, digoxigenin-labeled, […] PCR fragment of the HSV UL-15 sequence was utilized. PCR conditions included 0.5 μM primers, 180 μM dTP, 20 μM dUTP-digoxigenin (Boehringer Mannheim 1558706), 200 μM each of dATP, dCTP, and dGTP, 1×PCR Buffer II (Perkin Elmer), 2.5 mM MgCl2, 0.025 units/μL of AmpliTaq Gold polymerase (Perkin Elmer), and 5 ng of gel-purified HSV DNA per 100 μL. Extension conditions were 10 min at 95° C., followed by 30 cycles of 95° C. for 1 min, 55° C. for 30 sec, and 72° C. for 2 min. The amplification was completed with a 10-min incubation at 72° C. Primers were selected to amplify a 728 bp probe spanning a section of the HSV1 UL15 open reading frame (nucleotides 249–977). Single-stranded transcripts were purified with Promega M13 Wizard kits. The final product was mixed 1:1 with a mixture of 6 M GuSCN, 100 mM EDTA and 200 μg/mL herring sperm DNA and stored at 4° C. • (c) Preparation of Capture Plates.
The capture DNA plasmid (HSV UL13 region in pUC) was linearized by cutting with Xba I, denatured for 15 min at 95° C. and diluted immediately into Reacti-Bind DNA Coating Solution (Pierce, 17250, diluted 1:1 with TE buffer, pH 8) at 1 ng/μL 75 μL/well were added to Corning (#3922 or 9690) white 96-well plates and incubated at room temperature for at least 4 hrs before washing twice with 300 μL/well 0.2×SSC/0.05% Tween-20 (SSC/T buffer). The plates were then incubated overnight at room temperature with 150 μL/well 0.2 N NaOH, 1% IGEPAL and 10 μg/mL herring sperm DNA. • (d) Hybridization.
Twenty-seven (27) μL of cell lysate was combined with 45 μL of hybridization solution (final concentration: 3M GuSCN, 50 mM EDTA, 100 μg/ml salmon sperm DNA, 5× Denhardt's solution, 0.25×APE, and 5 ng of the digoxigenin-labeled detection probe). APE is 1.5 M NH4-acetate, 0.15 M ammonium phosphate, and 5 mM EDTA adjusted to pH 6.0. Mineral oil (50 μL) was added to prevent evaporation. The hybridization plates were incubated at 95° C. for 10 minutes to denature the DNA, then incubated at 42° C. overnight. The wells were washed 6× with 300 μL/well SSC/T buffer then incubated with 75 μL/well anti-digoxigenin-HRP-conjugated antibody (Boehringer Mannheim 1207733, 1:5000 in TE) for 30 min at room temperature. The wells were washed 6× with 300 μL/well with PBS/0.05% Tween-20 before 75 μL/well SuperSignal LBA substrate (Pierce) was added. The plates were incubated at room temperature for 30 minutes and chemiluminescence was measured in a Wallac Victor reader. • e) Results.
The following results were obtained for HSV-1.

First: Cc1cc(-c2c(-c3ccc(F)cc3)nn3c(N4CCN(C)CC4)cccc23)nc(NC2CCCC2)n1 [Example 15, N-Cyclopentyl-4-[2-(4-fluorophenyl)-7-(4-methyl-1-piperazinyl)pyrazolo[1,5-α]pyridin-3-yl]-6-methyl-2-pyrimidinamine]
Second: CN1CCN(c2cccc3c(-c4cc(-c5ccccc5)nc(NC5CCCC5)n4)c(-c4ccc(F)cc4)nn23)CC1 [Example 19, N-Cyclopentyl-4-[2-(4-fluorophenyl)-7-(4-methyl-1-piperazinyl)pyrazolo[1,5-α]pyridin-3-yl]-6-phenyl-2-pyrimidinamine hydrochloride]
The IC50 of the first is 2-fold higher: 5 µM for the first, 2.5 µM for the second.

Going from O=C(NC1CCCC1)c1cc(-c2c(-c3ccc(F)cc3)nn3c(NC4CCCC4)cccc23)nc(NC2CCCC2)n1 [Example 75, N-Cyclopentyl-2-(cyclopentylamino)-6-[7-(cyclopentylamino)-2-(4-fluorophenyl)pyrazolo[1,5-α]pyridin-3-yl]pyrimidine-4-carboxamide] to Fc1ccc(-c2nn3c(NC4CCCC4)cccc3c2-c2ccnc(NC3CCCC3)n2)cc1 [Example 1, N-cyclopentyl-3-[2-(cyclopentylamino)-4-pyrimidinyl]-2-(4-fluorophenyl)pyrazolo[1,5-α]pyridin-7-amine], the IC50 falls from > 20 µM to 0.3 µM.

First: CN(CC(=O)O)c1nccc(-c2c(-c3ccc(F)cc3)nn3c(NC4CCCC4)cccc23)n1 [Example 18, [{4-[7-(Cyclopentylamino)-2-(4-fluorophenyl)pyrazolo[1,5-α]pyridin-3-yl]-2-pyrimidinyl}(methyl)amino]acetic acid]
Second: CN(C)c1nccc(-c2c(-c3ccc(F)cc3)nn3c(NC4CCCC4)cccc23)n1 [Example 11, N-Cyclopentyl-3-[2-(dimethylamino)-4-pyrimidinyl]-2-(4-fluorophenyl)pyrazolo[1,5-α]pyridin-7-amine]
The IC50 of the first is 20-fold higher: 20 µM for the first, 1 µM for the second.

Going from CCCCNc1cccc2c(-c3ccnc(N4CCN(CCO)CC4)n3)c(-c3ccc(F)cc3)nn12 [Example 41, 2-(4-{4-[7-(Butylamino)-2-(4-fluorophenyl)pyrazolo[1,5-α]pyridin-3-yl]-2-pyrimidinyl}-1-piperazinyl)ethanol] to CCCCNc1nccc(-c2c(-c3ccc(F)cc3)nn3c(N4CCN(C)CC4)cccc23)n1 [Example 35, N-Butyl-4-[2-(4-fluorophenyl)-7-(4-methyl-1-piperazinyl)pyrazolo[1,5-α]pyridin-3-yl]-2-pyrimidinamine], the IC50 falls from 6 µM to 0.9 µM (6.7-fold).

Fc1ccc(-c2nn3c(Cl)cccc3c2-c2ccnc(-c3ccccc3)n2)cc1 [Example 73, 7-Chloro-2-(4-fluorophenyl)-3-(2-phenylpyrimidin-4-yl)pyrazolo[1,5-α]pyridine] and Fc1ccc(-c2nn3c(Cl)cccc3c2-c2ccnc(NC3CC3)n2)cc1 [Example 79, 4-[7-Chloro-2-(4-fluorophenyl)pyrazolo[1,5-α]pyridin-3-yl]-N-cyclopropylpyrimidin-2-amine] cannot be ordered by IC50: > 20 µM for the first, > 20 µM for the second.

Going from CNc1cccc2c(-c3ccncc3)c(-c3ccc(F)cc3)nn12 [Example 58, 2-(4-Fluorophenyl)-N-methyl-3-(4-pyridinyl)pyrazolo[1,5-α]pyridin-7-amine] to CN1CCCC1CCNc1cccc2c(-c3ccncc3)c(-c3ccc(F)cc3)nn12 (stereo not drawn) [Example 57, N-[2-(4-Fluorophenyl)-3-(4-pyridinyl)pyrazolo[1,5-α]pyridin-7-yl]-N-[2-(1-methyl-2-pyrrolidinyl)ethyl]amine], the IC50 falls from 10.5 µM to 0.7 µM (15-fold).

Going from OCc1cc(-c2c(-c3ccc(F)cc3)nn3c(Cl)cccc23)nc(NC2CCCC2)n1 [Example 17, [6-[7-Chloro-2-(4-fluorophenyl)pyrazolo[1,5-α]pyridin-3-yl]-2-(cyclopentylamino)-4-pyrimidinyl]methanol] to O=C(O)c1cc(-c2c(-c3ccc(F)cc3)nn3c(Cl)cccc23)nc(NC2CCCC2)n1 [Example 27, 6-[7-Chloro-2-(4-fluorophenyl)pyrazolo[1,5-α]pyridin-3-yl]-2-(cyclopentylamino)-4-pyrimidinecarboxylic acid], the IC50 falls from 3 µM to 1.3 µM (2.3-fold).

NNc1cc(-c2c(-c3ccc(F)cc3)nn3c(NC4CCCC4)cccc23)ccn1 [Example 30, N-Cyclopentyl-2-(4-fluorophenyl)-3-(2-hydrazino-4-pyridinyl)pyrazolo[1,5-α]pyridin-7-amine] and Cc1cc(-c2c(-c3ccc(F)cc3)nn3c(NN)cccc23)nc(NC2CCCC2)n1 [Example 14, N-Cyclopentyl-4-[2-(4-fluorophenyl)-7-hydrazinopyrazolo[1,5-α]pyridin-3-yl]-6-methyl-2-pyrimidinamine] are the same in IC50: 5 µM for the first, 5 µM for the second.

CSc1cccc2c(-c3cc(NC4CCCC4)ncn3)c(-c3ccc(F)cc3)nn12 [Example 83, N-Cyclopentyl-6-[2-(4-fluorophenyl)-7-(methylthio)pyrazolo[1,5-α]pyridin-3-yl]pyrimidin-4-amine] and Fc1ccc(-c2nn3c(Cl)cccc3c2-c2ccnc(NC3CCCC3)n2)cc1 [Example 26, 4-[7-Chloro-2-(4-fluorophenyl)pyrazolo[1,5-α]pyridin-3-yl]-N-cyclopentyl-2-pyrimidinamine] are within 1.5-fold of each other in IC50: 1.3 µM for the first, 1.5 µM for the second.

Going from CCCCNc1nccc(-c2c(-c3ccc(F)cc3)nn3c(NC4CC4)cccc23)n1 [Example 33, 3-[2-(Butylamino)-4-pyrimidinyl]-N-cyclopropyl-2-(4-fluorophenyl)pyrazolo[1,5-α]pyridin-7-amine] to C=CCNc1nccc(-c2c(-c3ccc(F)cc3)nn3c(NCCCC)cccc23)n1 [Example 39, 3-[2-(Allylamino)-4-pyrimidinyl]-N-butyl-2-(4-fluorophenyl)pyrazolo-[1,5-α]pyridin-7-amine], the IC50 rises from 0.2 µM to 1 µM (5-fold).

First: Cc1cc(-c2c(-c3ccc(F)cc3)nn3c(NCC(=O)O)cccc23)nc(NC2CCCC2)n1 [Example 25, {[3-[2-(Cyclopentylamino)-6-methyl-4-pyrimidinyl]-2-(4-fluorophenyl)pyrazolo[1,5-α]pyridin-7-yl]amino}acetic acid]
Second: Cc1cnc(NC2CCCC2)nc1-c1c(-c2ccc(F)cc2)nn2c(NC3CCCC3)cccc12 [Example 53, N-Cyclopentyl-3-[2-(cyclopentylamino)-5-methyl-4-pyrimidinyl]-2-(4-fluorophenyl)pyrazolo[1,5-α]pyridin-7-amine]
The IC50 of the first is 15-fold higher: 15 µM for the first, 1 µM for the second.

First: Fc1ccc(-c2nn3c(NC4CCCC4)cccc3c2-c2cc(-c3ccccc3)nc(NC3CCCC3)n2)cc1 [Example 82, N-Cyclopentyl-3-[2-(cyclopentylamino)-6-phenylpyrimidin-4-yl]-2-(4-fluorophenyl)pyrazolo[1,5-α]pyridin-7-amine]
Second: CCCCNc1cccc2c(-c3ccnc(NCc4ccccn4)n3)c(-c3ccc(F)cc3)nn12 [Example 43, N-Butyl-2-(4-fluorophenyl)-3-{2-[(2-pyridinylmethyl)amino]-4-pyrimidinyl}pyrazolo[1,5-α]pyridin-7-amine]
The IC50 of the first is higher: > 20 µM for the first, 3 µM for the second.

Compared with CCCCNc1cccc2c(-c3ccnc(OCC(F)(F)F)n3)c(-c3ccc(F)cc3)nn12 [Example 68, N-Butyl-2-(4-fluorophenyl)-3-[2-(2,2,2-trifluoroethoxy)pyrimidin-4-yl]pyrazolo[1,5-α]pyridin-7-amine], CCCCNc1nccc(-c2c(-c3ccc(F)cc3)nn3c(NCCCC)cccc23)n1 [Example 3, N-Butyl-3-[2-(butylamino)-4-pyrimidinyl]-2-(4-fluorophenyl)pyrazolo-[1,5-α]pyridin-7-amine] is lower in IC50: > 20 µM for the first, 0.5 µM for the second.

For CCCCNc1nccc(-c2c(-c3ccc(F)cc3)nn3c(NCCOC)cccc23)n1 [Example 48, 3-[2-(Butylamino)-4-pyrimidinyl]-2-(4-fluorophenyl)-N-(2-methoxyethyl)pyrazolo[1,5-α]pyridin-7-amine], the IC50 was 0.3 µM.
